Measured values: PubChem BioAssay (NCI)
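Growth conditions: 96-well plates. Treatment: test compound, 48 hours, 5 concentrations. Analysis: linear interpolation between bracketing concentrations; unreached endpoints set to highest concentration. At the TGI there is no net growth.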

What was measured:
Test in all cases: NCI tumour cell line growth inhibition, 48 h
[1] = tested on: HCC-2998 colon
[2] = tested on: OVCAR-5 ovarian
[3] = tested on: SK-OV-3 ovarian
[4] = tested on: RXF 393 renal
[5] = tested on: SW-620 colon
[6] = tested on: SK-MEL-2 melanoma
[7] = tested on: UACC-257 melanoma
[8] = tested on: TK-10 renal
[9] = tested on: KM12 colon
[10] = tested on: 786-0 renal
[11] = tested on: M14 melanoma
[12] = tested on: UO-31 renal
[13] = tested on: EKVX NSCLC
[14] = tested on: MALME-3M melanoma
[15] = tested on: U251 CNS
[16] = tested on: SNB-19 CNS
[17] = tested on: BT-549 breast
[18] = tested on: NCI/ADR-RES ovarian
[19] = tested on: DU-145 prostate
[20] = tested on: T-47D breast

Compound	TGI [1] [µM]	TGI [2] [µM]	TGI [3] [µM]	TGI [4] [µM]	TGI [5] [µM]	TGI [6] [µM]	TGI [7] [µM]	TGI [8] [µM]	TGI [9] [µM]	TGI [10] [µM]	TGI [11] [µM]	TGI [12] [µM]	TGI [13] [µM]	TGI [14] [µM]	TGI [15] [µM]	TGI [16] [µM]	TGI [17] [µM]	TGI [18] [µM]	TGI [19] [µM]	TGI [20] [µM]
CCOc1ccc(/C(Cl)=C(\C=O)c2ccc(OC)c(OC)c2)cc1OCC	> 100	> 100	> 100	> 100	> 100	> 100	> 100	> 100	> 100	> 100	> 100	> 100	> 100	> 100	97.5	> 100				
CC(C)CC(NC(=O)OC(C)(C)C)C(=O)Nc1ccc(Nc2nc(F)nc(-c3c4ccccc4c4n3CCS4)n2)cc1 (stereo unspecified)	35	44.7	32.9	62.1	30.7	33.6	48.3	57.5	51.1	34.8	35.1	34.8	37.8	38.9	33.3	36.9				
COc1ccc(CNC(=O)NCn2cc(-c3ccccc3)nn2)cc1	> 100	> 100			> 100	> 100	> 100	> 100	> 100	> 100	> 100		> 100	> 100	> 100	> 100	> 100	> 100	> 100	
CN(C)CCCNc1ccc([N+](=O)[O-])c2nc3ccccc3c(N)c12		> 10	0.987	2.29	1.63	2.69	> 10	> 10	1.53	1.8	1.95	2.97	2.35	> 10	2.12	3.23	4.75	1.84	1.75	
CC(=O)O[C@H]1C(=O)[C@@]2(C)[C@H]([C@H](OC(=O)c3ccccc3)[C@]3(O)C[C@H](OC(=O)[C@H](O)[C@@H](NC(=O)c4cccc(N=[N+]=[N-])c4)c4ccccc4)C(C)=C1C3(C)C)[C@]1(OC(C)=O)CO[C@@H]1C[C@@H]2O		1.06	> 25	0.897	> 25			> 20.1	> 25	> 25	3.23	> 25	> 25	> 25	0.635	> 25		> 25		> 25
Cc1ccc([N+](=O)[O-])cc1NC(=O)/C(=N/NC(=S)NN)C1SC(=S)NC1=O (stereo unspecified)		> 100	> 100	> 100	> 100	> 100	> 100	> 100	> 100	> 100	> 100	> 100	> 100	> 100	> 100	> 100				
